Measurements taken from US20180305370A1 (ORPHOMED, INC., priority 2015, published 2018).
Where two headings read alike, the source gives them in different places.

Columns and labels:
[1] = for stability over time: 28 months, room temperature
human liver microsomes = assay: Metabolic stability in human liver microsomes; details: 1 μM, human liver microsomes 1 mg protein/mL, up to 120 min, FIG. 1
[2] = In vivo pharmacokinetic study, IV and oral gavage
Method: The animal pharmacokinetic studies were conducted at Johns Hopkins Medical Institute using CD-1 mice (weighing about 35 gm, n=3 per time point). […] Blood collected at 0, 30 min and 1, 2, 6 and 24 hours post-dose. Blood samples for the drug were analyzed after harvesting the plasma and by LC/MS/MS as follows:
Extracts were centrifuged at 16000×g at 4° C. for 5 minutes. Supernatants (250 μL) were transferred to a new tube and dried under N2 at 45° C. for 1 hour. Samples were reconstituted with 100 μL of 30% acetonitrile, vortexed and centrifuged. Supernatants (90 μL) were transferred to LC vials and 10 μL was injected on LC/MS.

[3] = system: formalin-induced hind paw licking; assay: Analgesia, formalin paw mouse study (hind paw licking time)
ORL-1 = ORL-1 (Homo sapiens, UniProt P41146); details: cited from earlier work
[4] = in vivo; cited from earlier work
[5] = cited from earlier work

Chain of ORL-1 (P41146 whole entry, species assumed): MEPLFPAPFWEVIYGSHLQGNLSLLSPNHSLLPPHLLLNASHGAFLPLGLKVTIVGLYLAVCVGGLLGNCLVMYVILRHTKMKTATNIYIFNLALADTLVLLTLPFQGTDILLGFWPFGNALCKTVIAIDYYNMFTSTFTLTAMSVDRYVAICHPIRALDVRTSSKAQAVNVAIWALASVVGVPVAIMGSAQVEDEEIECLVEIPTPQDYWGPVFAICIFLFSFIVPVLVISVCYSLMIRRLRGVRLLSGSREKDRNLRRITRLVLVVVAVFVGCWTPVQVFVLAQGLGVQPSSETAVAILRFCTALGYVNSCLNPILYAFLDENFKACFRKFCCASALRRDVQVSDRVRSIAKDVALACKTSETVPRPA

Molecule | stability over time ([1]; listed as EGE conjugate) | stability over time ([1]; listed as compound of the invention) | HPLC Purity, September 2015 ([1]; hydrochloride salt, after 28 months at room temperature in clear glass vials) | HPLC Purity, May 2013 ([1]; hydrochloride salt, immediately after synthesis, stability baseline) | metabolism in presence of microsomal enzymes (human liver microsomes) | absolute bioavailability (ratio of area under the concentration curve after oral and IV dose) ([2]; CD-1 mice, 10 mg/kg oral gavage vs IV, FIG. 6) | bioavailability, less than morphine ([2]; animal studies versus morphine) | analgesic effect ([3]; 5 mg/kg IP, mice, FIG. 9) | activity, less than morphine ([3]; animal studies versus morphine (Example 7)) | Activity (ORL-1) | analgesic potency compared with morphine [4] | absolute bioavailability after an oral dose [5]
2-[(2S)-2-[(5R,6R,7R,14S)-9α-cyclopropylmethyl-4,5-epoxy-6,14-ethano-3-hydroxy-6-methoxymorphinan-7-yl]-3,3-dimethylbutan-2-ol]-ethanol [EGE buprenorphine hydrochloride] | unchanged over time | significantly more stable | 98.7% (AUC) | 98.6% (AUC) | rapid metabolism | about 40% | about 40% | rapid analgesic effect | about 2.5% | – | – | –
CO[C@]12CC[C@@]3(C[C@@H]1[C@](C)(O)C(C)(C)C)[C@H]1Cc4ccc(O)c5c4[C@@]3(CCN1CC1CC1)[C@H]2O5 [Buprenorphine, buprenorphine] | – | – | – | – | – | – | – | – | – | Agonist | about thirty times more potent | less than 10%
